Measured values: patent publication US20050048603A1 (priority 2001, published 2005)

B1: mycoAC holoenzyme expressed in E. coli (N-terminal His6-tag) (protein)
chain: MRGSHHHHHHGSMAARKCGAPPIAADGSTRRPDCVTAVRTQARAPTQHYAESVARRQRVLTITAWLAVVVTGSFALMQLATGAGGWYIALINVFTAVTFAIVPLLHRFGGLVAPLTFIGTAYVAIFAIGWDVGTDAGAQFFFLVAAALVVLLVGIEHTALAVGLAAVAAGLVIALEFLVPPDTGLQPPWAMSVSFVLTTVSACGVAVATVWFALRDTARAEAVMEAEHDRSEALLANMLPASIAERLKEPERNIIADKYDEASVLFADIVGFTERASSTAPADLVRFLDRLYSAFDELVDQHGLEKIKVSGDSYMVVSGVPRPRPDHTQALADFALDMTNVAAQLKDPRGNPVPLRVGLATGPVVAGVVGSRRFFYDVWGDAVNVASRMESTDSVGQIQVPDEVYERLKDDFVLRERGHINVKGKGVMRTWYLIGRKVAADPGEVRGAEPRTAGV

Legend:
[1] = target: mycoAC (adenylyl cyclase Rv1625c) (Mycobacterium tuberculosis, UniProt P9WQ35); type: biochemical

Molecule | acceptance as a substrate [1] | AC activity of the bacterial membrane preparation (P9WQ35) [nmol cAMP/mg·min^-1]
Mn-GTP | not accepted as a substrate | –
B1 | – | 19
